Measured values: US20160355530A1, “HEPATITIS C INHIBITORS AND USES THEREOF” (AbbVie Inc., priority 2010, published 2016)
Like-named read-outs stand apart in the source and are kept apart here.

Legend:
[1] = tested on: HCV NS5B polymerase 1a-H77-C316Y; assay: biochemical; parameters: species or system HCV genotype 1a; conditions: ratio of enzyme IC50s, 1a H77-C316Y / 1a H77
In short: (§1)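 E. coli-expressed NS5B (residues 1-570, His-tagged) transcribed a 2.1 kb HCV 1b negative-strand 3′-end RNA template (5 nM) with 20 μM CTP, 20 μM ATP and 0.284 μM [3H]UTP for 3 h at 30° C. Spermine-precipitated RNA was filter-captured and counted by scintillation; IC50 from nonlinear regression.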

[2] = biological target: T1, HCV NS5B polymerase 1a-H77-C316Y (Hepatitis C virus genotype 1a, UniProt P27958, C2736Y); assay: biochemical; parameters: species or system HCV genotype 1a
T1 construct: six-histidine tag; made in house; host or cells: E. coli
In short: as §1

[3] = biological target: T2, HCV NS5B polymerase 1a-H77 (Hepatitis C virus genotype 1a, UniProt P27958); assay: biochemical; parameters: species or system HCV genotype 1a; conditions: enzyme, strain 1a H77; read-out: HCV Polymerase Strain 1a H77 IC50
T2 construct: six-histidine tag; made in house; host or cells: E. coli
In short: as §1

[4] = tested on: HCV 1a-H77-C316Y transient subgenomic replicon in Huh-7 derived cell line; assay: microbe, parasite or virus in culture; assay type: cell-based, HCV genotype 1a; conditions: for EC50: Hepatitis C virus, Huh-7, read-out: Transient Replicon 1a H77-C316Y 5% FBS EC50; for Transient Replicon Fold Resistance C316Y/1a: ratio of transient replicon EC50s, C316Y / 1a H77
In short: (§2)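 Subgenomic replicon RNA (no Neo gene) electroporated into Huh-7-derived cells, plated at 5×10^3 cells/well; a 4 h plate gauged transfection efficiency. Cells exposed to 3-fold compound dilutions (0.5% DMSO) for 4 days at 37° C, then lysed for luciferase readout; EC50 calculated.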

[5] = tested on: HCV 1a-H77 transient subgenomic replicon in Huh-7 derived cell line; assay: microbe, parasite or virus in culture; assay type: cell-based, HCV genotype 1a; conditions: Hepatitis C virus, Huh-7; transient replicon, 5% FBS; read-out: Transient Replicon 1a H77 5% FBS EC50
In short: as §2

[6] = tested on: chimeric replicon with genotype 3a NS5B; assay: microbe, parasite or virus in culture; assay type: cell-based, HCV genotype 3a; conditions: Hepatitis C virus, read-out: 3a chimera 5% FBS EC50
[7] = tested on: chimeric replicon with 2a-J6CF-derived NS5B; assay: microbe, parasite or virus in culture; assay type: cell-based, HCV genotype 2a; conditions: Hepatitis C virus, read-out: 2a chimera 5% FBS EC50
[8] = tested on: chimeric replicon with genotype 2b NS5B; assay: microbe, parasite or virus in culture; assay type: cell-based, HCV genotype 2b; conditions: Hepatitis C virus, read-out: 2b chimera 5% FBS EC50
[9] = tested on: HCV 1b-BB7 subgenomic replicon; assay: microbe, parasite or virus in culture; assay type: cell-based, HCV genotype 1b; conditions: Hepatitis C virus, stable replicon
[10] = tested on: chimeric replicon with genotype 4a NS5B; assay: microbe, parasite or virus in culture; assay type: cell-based, HCV genotype 4a; conditions: Hepatitis C virus, read-out: 4a chimera 5% FBS EC50
[11] = biological target: T3, HCV NS5B polymerase 1b BK strain (Hepatitis C virus genotype 1b, UniProt P26663); assay: HCV NS5B polymerase enzymatic inhibition assay, strain 1b BK; assay type: biochemical; conditions: enzyme, strain 1b BK; read-out: HCV Polymerase Strain 1b BK IC50
T3 construct: six-histidine tag; made in house; host or cells: E. coli
In short: as §1

[12] = tested on: HCV 1a-H77 subgenomic replicon; assay: microbe, parasite or virus in culture; assay type: cell-based, HCV genotype 1a; conditions: Hepatitis C virus, stable replicon
[13] = strain 1b BB7, 5% FBS + 40% human plasma, read-out: 1b BB7 5% FBS + 40% Human Plasma EC50
[14] = strain 1b BB7, 5% FBS, no human plasma, read-out: 1b BB7 5% FBS EC50
[15] = strain 1b BB7, 5% FBS, read-out: 1b BB7 5% FBS EC50
[16] = 5% FBS, absence of human plasma, read-out: Stable Replicon 1a H77 5% FBS EC50
[17] = strain 1a H77, 5% FBS + 40% human plasma, read-out: 1a H77 5% FBS + 40% Human Plasma EC50
[18] = strain 1a H77, 5% FBS, no human plasma, read-out: 1a H77 5% FBS EC50
[19] = strain 1a H77, 5% FBS, read-out: 1a H77 5% FBS EC50

T2 sequence (P27958 2421-2990): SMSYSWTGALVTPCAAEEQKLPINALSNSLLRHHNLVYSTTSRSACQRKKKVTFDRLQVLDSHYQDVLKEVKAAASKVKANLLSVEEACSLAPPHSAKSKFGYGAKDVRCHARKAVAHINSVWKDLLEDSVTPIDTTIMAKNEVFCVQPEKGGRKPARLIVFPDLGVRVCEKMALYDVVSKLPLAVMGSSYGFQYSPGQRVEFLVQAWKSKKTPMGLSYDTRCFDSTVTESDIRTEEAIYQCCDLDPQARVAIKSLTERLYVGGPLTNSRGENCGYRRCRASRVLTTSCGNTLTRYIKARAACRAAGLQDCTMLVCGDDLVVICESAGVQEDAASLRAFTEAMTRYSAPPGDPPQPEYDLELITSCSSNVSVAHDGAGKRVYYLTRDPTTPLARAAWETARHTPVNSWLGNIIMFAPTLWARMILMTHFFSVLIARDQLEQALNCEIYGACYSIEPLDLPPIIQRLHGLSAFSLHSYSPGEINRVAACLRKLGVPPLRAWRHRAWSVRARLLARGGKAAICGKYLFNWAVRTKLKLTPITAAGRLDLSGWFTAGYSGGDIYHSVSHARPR
T1 sequence (P27958 2421-2990 C2736Y): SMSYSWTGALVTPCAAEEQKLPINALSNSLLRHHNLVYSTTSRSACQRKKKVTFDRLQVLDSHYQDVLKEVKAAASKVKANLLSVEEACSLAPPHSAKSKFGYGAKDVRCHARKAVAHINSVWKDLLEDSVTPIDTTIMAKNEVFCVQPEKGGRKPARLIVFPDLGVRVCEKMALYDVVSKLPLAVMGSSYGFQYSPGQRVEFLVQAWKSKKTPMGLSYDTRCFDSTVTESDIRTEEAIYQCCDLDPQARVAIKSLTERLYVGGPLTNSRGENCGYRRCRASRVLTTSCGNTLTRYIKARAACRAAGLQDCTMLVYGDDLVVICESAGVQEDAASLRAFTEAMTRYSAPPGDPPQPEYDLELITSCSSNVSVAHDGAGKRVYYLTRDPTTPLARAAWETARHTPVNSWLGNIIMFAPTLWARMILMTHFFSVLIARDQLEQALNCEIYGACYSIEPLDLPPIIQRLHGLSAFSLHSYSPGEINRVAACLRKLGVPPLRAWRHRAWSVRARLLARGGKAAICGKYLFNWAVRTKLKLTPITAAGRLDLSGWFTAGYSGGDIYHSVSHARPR
T3 sequence (P26663 2420-2989): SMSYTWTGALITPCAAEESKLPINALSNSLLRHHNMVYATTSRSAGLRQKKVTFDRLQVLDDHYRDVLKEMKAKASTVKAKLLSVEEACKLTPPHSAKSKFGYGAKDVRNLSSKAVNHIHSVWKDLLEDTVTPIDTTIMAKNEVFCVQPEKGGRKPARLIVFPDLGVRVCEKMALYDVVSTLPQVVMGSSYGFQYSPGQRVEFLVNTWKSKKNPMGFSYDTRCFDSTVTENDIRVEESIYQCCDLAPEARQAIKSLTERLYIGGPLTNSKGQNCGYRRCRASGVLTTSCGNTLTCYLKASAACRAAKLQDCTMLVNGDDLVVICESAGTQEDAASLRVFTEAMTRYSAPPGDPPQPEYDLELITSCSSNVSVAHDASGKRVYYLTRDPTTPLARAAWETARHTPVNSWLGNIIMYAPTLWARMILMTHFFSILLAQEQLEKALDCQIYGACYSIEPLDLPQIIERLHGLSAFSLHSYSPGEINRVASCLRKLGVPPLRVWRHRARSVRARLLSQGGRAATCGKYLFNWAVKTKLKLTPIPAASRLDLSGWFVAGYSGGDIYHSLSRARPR

CC(C)CCN(c1cc2oc(-c3ccc(F)cc3)c(-c3ncc[nH]3)c2cc1C1CC1)S(C)(=O)=O [Example 4, N-[5-cyclopropyl-2-(4-fluorophenyl)-3-(1H-imidazol-2-yl)-1-benzofuran-6-yl]-N-(3-methylbutyl)methanesulfonamide]
C316Y/1a Fold Resistance [1]: 11 fold
IC50 [2]: 57 nM
IC50 [3]: 5.3 nM
EC50 [4]: 69.4 nM
Transient Replicon Fold Resistance C316Y/1a [4]: 9 fold
EC50 [5]: 7.9 nM
EC50 [6]: 11 nM
EC50 [7]: 156 nM
EC50 [8]: 270 nM
EC50 [9, 13]: 297 nM
EC50 [9, 14]: 25 nM
EC50 [9, 15]: 25 nM
EC50 [10]: 169 nM
IC50 [11]: 11 nM
EC50 [12, 16]: 29 nM
EC50 [12, 17]: 512 nM
EC50 [12, 18]: 29 nM
EC50 [12, 19]: 29 nM

CC1NC(c2c(-c3ccc(F)cc3)oc3cc(N(CC[S+](C)[O-])S(C)(=O)=O)c(C4CC4)cc23)=NO1 (stereo not drawn) [Example 13, N-[5-cyclopropyl-2-(4-fluorophenyl)-3-(5-methyl-4,5-dihydro-1,2,4-oxadiazol-3-yl)-1-benzofuran-6-yl]-N-[2-(methylsulfinyl)ethyl]methanesulfonamide]
C316Y/1a Fold Resistance [1]: 16 fold
IC50 [2]: 115 nM
IC50 [3]: 7.4 nM
EC50 [4]: 134 nM
Transient Replicon Fold Resistance C316Y/1a [4]: 12 fold
EC50 [5]: 11.1 nM
EC50 [6]: 42 nM
EC50 [7]: 384 nM
EC50 [8]: 307 nM
EC50 [9, 13]: 146 nM
EC50 [9, 14]: 15.9 nM
EC50 [9, 15]: 15.9 nM
EC50 [10]: 159 nM
IC50 [11]: 26 nM
EC50 [12, 16]: 14.8 nM
EC50 [12, 17]: 163 nM
EC50 [12, 18]: 14.8 nM
EC50 [12, 19]: 14.8 nM

CS(=O)(=O)N(CCCN1CCOCC1)c1cc2oc(-c3ccc(F)cc3)c(C3=NOCCN3)c2cc1C1CC1 [Example 126, N-[5-cyclopropyl-3-(5,6-dihydro-4H-1,2,4-oxadiazin-3-yl)-2-(4-fluorophenyl)-1-benzofuran-6-yl]-N-[3-(morpholin-4-yl)propyl]methanesulfonamide]
C316Y/1a Fold Resistance [1]: 4 fold
IC50 [2]: 91 nM
IC50 [3]: 21.5 nM
EC50 [4]: 260 nM
Transient Replicon Fold Resistance C316Y/1a [4]: 8 fold
EC50 [5]: 33.6 nM
EC50 [6]: 70 nM
EC50 [7]: 350 nM
EC50 [8]: 453 nM
EC50 [9, 13]: 379 nM
EC50 [9, 14]: 30 nM
EC50 [9, 15]: 30 nM
EC50 [10]: 360 nM
IC50 [11]: 111 nM
EC50 [12, 16]: 25.3 nM
EC50 [12, 17]: 258 nM
EC50 [12, 18]: 25.3 nM
EC50 [12, 19]: 25.3 nM

CS(=O)(=O)CCN(c1cc2oc(-c3ccc(F)cc3)c(C3=NOCCN3)c2cc1C1CC1)S(C)(=O)=O [Example 9, N-[5-cyclopropyl-3-(5,6-dihydro-4H-1,2,4-oxadiazin-3-yl)-2-(4-fluorophenyl)-1-benzofuran-6-yl]-N-[2-(methylsulfonyl)ethyl]methanesulfonamide]
C316Y/1a Fold Resistance [1]: 8 fold
IC50 [2]: 30 nM
IC50 [3]: 3.9 nM
EC50 [4]: 57.5 nM
Transient Replicon Fold Resistance C316Y/1a [4]: 7 fold
EC50 [5]: 7.7 nM
EC50 [6]: 22.6 nM
EC50 [7]: 293 nM
EC50 [8]: 298 nM
EC50 [9, 13]: 138 nM
EC50 [9, 14]: 15 nM
EC50 [9, 15]: 15 nM
EC50 [10]: 125 nM
IC50 [11]: 34 nM
EC50 [12, 16]: 8.4 nM
EC50 [12, 17]: 67 nM
EC50 [12, 18]: 8.4 nM
EC50 [12, 19]: 8.4 nM

Cc1ccc(C)n1-c1nc(CCCN(c2cc3oc(-c4ccc(F)cc4)c(-c4ncc[nH]4)c3cc2C2CC2)S(C)(=O)=O)cs1 [Example 62, N-[5-cyclopropyl-2-(4-fluorophenyl)-3-(1H-imidazol-2-yl)-1-benzofuran-6-yl]-N-{3-[2-(2,5-dimethyl-1H-pyrrol-1-yl)-1,3-thiazol-4-yl]propyl}methanesulfonamide]
C316Y/1a Fold Resistance [1]: 65 fold
IC50 [2]: 250 nM
IC50 [3]: 3.9 nM
EC50 [4]: 899 nM
Transient Replicon Fold Resistance C316Y/1a [4]: 15 fold
EC50 [5]: 60.6 nM
EC50 [6]: 49.9 nM
EC50 [7]: 309 nM
EC50 [8]: 471 nM
EC50 [9, 13]: 328 nM
EC50 [9, 14]: 71 nM
EC50 [9, 15]: 71 nM
EC50 [10]: 364 nM
IC50 [11]: 14 nM
EC50 [12, 16]: 88.7 nM
EC50 [12, 17]: 342 nM
EC50 [12, 18]: 88.7 nM
EC50 [12, 19]: 88.7 nM

CS(=O)(=O)N(CCCc1cc(O)no1)c1cc2oc(-c3ccc(F)cc3)c(-c3ncc[nH]3)c2cc1C1CC1 [Example 7, N-[5-cyclopropyl-2-(4-fluorophenyl)-3-(1H-imidazol-2-yl)-1-benzofuran-6-yl]-N-[3-(3-hydroxy-1,2-oxazol-5-yl)propyl]methanesulfonamide]
C316Y/1a Fold Resistance [1]: 4 fold
IC50 [2]: 12 nM
IC50 [3]: 3 nM
EC50 [4]: 327 nM
Transient Replicon Fold Resistance C316Y/1a [4]: 33 fold
EC50 [5]: 9.9 nM
EC50 [6]: 11.1 nM
EC50 [7]: 218 nM
EC50 [8]: 178 nM
EC50 [9, 13]: 106 nM
EC50 [9, 14]: 5.7 nM
EC50 [9, 15]: 5.7 nM
EC50 [10]: 162 nM
IC50 [11]: 11 nM
EC50 [12, 16]: 15 nM
EC50 [12, 17]: 111 nM
EC50 [12, 18]: 15 nM
EC50 [12, 19]: 15 nM

CS(=O)(=O)CCCCN(c1cc2oc(-c3ccc(F)cc3)c(C3=NOCCN3)c2cc1C1CC1)S(C)(=O)=O [Example 122, N-[5-cyclopropyl-3-(5,6-dihydro-4H-1,2,4-oxadiazin-3-yl)-2-(4-fluorophenyl)-1-benzofuran-6-yl]-N-[4-(methylsulfonyl)butyl]methanesulfonamide]
C316Y/1a Fold Resistance [1]: 7 fold
IC50 [2]: 46 nM
IC50 [3]: 6.9 nM
EC50 [4]: 62.3 nM
Transient Replicon Fold Resistance C316Y/1a [4]: 9 fold
EC50 [5]: 6.7 nM
EC50 [6]: 32 nM
EC50 [7]: 130 nM
EC50 [8]: 127 nM
EC50 [9, 13]: 81 nM
EC50 [9, 14]: 11 nM
EC50 [9, 15]: 11 nM
EC50 [10]: 83.9 nM
IC50 [11]: 25 nM
EC50 [12, 16]: 8.4 nM
EC50 [12, 17]: 50 nM
EC50 [12, 18]: 8.4 nM
EC50 [12, 19]: 8.4 nM

CS(=O)(=O)N(Cc1cnc(-c2ccc3nc[nH]c3c2)s1)c1ccc2c(-c3ncc[nH]3)c(-c3ccccc3)oc2c1 [Example 3, N-{[2-(1H-benzimidazol-6-yl)-1,3-thiazol-5-yl]methyl}-N-[3-(1H-imidazol-2-yl)-2-phenyl-1-benzofuran-6-yl]methanesulfonamide]
C316Y/1a Fold Resistance [1]: 4 fold
IC50 [2]: 11 nM
IC50 [3]: 3 nM
EC50 [4]: 109 nM
Transient Replicon Fold Resistance C316Y/1a [4]: 5 fold
EC50 [5]: 21.3 nM
EC50 [6]: 2.8 nM
EC50 [7]: 29.3 nM
EC50 [8]: 81.8 nM
EC50 [9, 13]: 760 nM
EC50 [9, 14]: 5 nM
EC50 [9, 15]: 5 nM
EC50 [10]: 135 nM
IC50 [11]: 10 nM
EC50 [12, 16]: 48 nM
EC50 [12, 17]: 7930 nM
EC50 [12, 18]: 48 nM
EC50 [12, 19]: 48 nM

CCOC(=O)CCCN(c1cc2oc(-c3ccc(F)cc3)c(C3=NOCCN3)c2cc1C1CC1)S(C)(=O)=O [Example 121, ethyl 4-{[5-cyclopropyl-3-(5,6-dihydro-4H-1,2,4-oxadiazin-3-yl)-2-(4-fluorophenyl)-1-benzofuran-6-yl](methylsulfonyl)amino}butanoate]
C316Y/1a Fold Resistance [1]: 12 fold
IC50 [2]: 40 nM
IC50 [3]: 3.5 nM
EC50 [4]: 287 nM
Transient Replicon Fold Resistance C316Y/1a [4]: 10 fold
EC50 [5]: 28 nM
EC50 [6]: 121 nM
EC50 [7]: 1000 nM
EC50 [8]: 1000 nM
EC50 [9, 13]: 388 nM
EC50 [9, 14]: 68 nM
EC50 [9, 15]: 68 nM
EC50 [10]: 988 nM
IC50 [11]: 55 nM
EC50 [12, 16]: 38.7 nM
EC50 [12, 17]: 311 nM
EC50 [12, 18]: 38.7 nM
EC50 [12, 19]: 38.7 nM
